Source: PubChem BioAssay AID2060626 (Molecular Pharmacology Branch, DTP, NCI, 2025)
Values joined by “and” are separate entries in the source; they are usually repeats but may differ in a detail not shown here. Equal values may be shown once.

Test system: 168753-222-R-J1-PDC complex spheroid viability
Experiment: Anticancer human tumor 168753-222-R-J1-PDC patient-derived bladder carcinoma cell line growth inhibition [CLK]
Conditions: for viability, T/C: stronger effect = lower value
How it was run: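 Multi-cell-type spheroids combined patient-derived tumor cells with HUVEC endothelial cells and human mesenchymal stem cells. Paired agents were dosed in half-log steps down from about clinical Cmax, or from 10 microM where Cmax was unknown.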

[1] = curve of first compound, second compound 0.0316 µM
[2] = curve of first compound, second compound 0.1 µM
[3] = curve of first compound, second compound 0.316 µM
[4] = curve of first compound, second compound 1 µM
[5] = curve of first compound, second compound 3.16 µM
[6] = curve of first compound, second compound 10 µM
[7] = second compound 0.0316 µM, first compound 0.0316 µM
[8] = second compound 0.0316 µM, first compound 0.1 µM
[9] = second compound 0.0316 µM, first compound 0.316 µM
[10] = second compound 0.0316 µM, first compound 1 µM
[11] = second compound 0.0316 µM, first compound 3.16 µM
[12] = second compound 0.0316 µM, first compound 10 µM
[13] = second compound 0.1 µM, first compound 0.0316 µM
[14] = second compound 0.1 µM, first compound 0.1 µM
[15] = second compound 0.1 µM, first compound 0.316 µM
[16] = second compound 0.1 µM, first compound 1 µM
[17] = second compound 0.1 µM, first compound 3.16 µM
[18] = second compound 0.1 µM, first compound 10 µM
[19] = second compound 0.316 µM, first compound 0.0316 µM
[20] = second compound 0.316 µM, first compound 0.1 µM
[21] = second compound 0.316 µM, first compound 0.316 µM
[22] = second compound 0.316 µM, first compound 1 µM
[23] = second compound 0.316 µM, first compound 3.16 µM
[24] = second compound 0.316 µM, first compound 10 µM
[25] = second compound 1 µM, first compound 0.0316 µM
[26] = second compound 1 µM, first compound 0.1 µM
[27] = second compound 1 µM, first compound 0.316 µM
[28] = second compound 1 µM, first compound 1 µM
[29] = second compound 1 µM, first compound 3.16 µM
[30] = second compound 1 µM, first compound 10 µM
[31] = second compound 3.16 µM, first compound 0.0316 µM
[32] = second compound 3.16 µM, first compound 0.1 µM
[33] = second compound 3.16 µM, first compound 0.316 µM
[34] = second compound 3.16 µM, first compound 1 µM
[35] = second compound 3.16 µM, first compound 3.16 µM
[36] = second compound 3.16 µM, first compound 10 µM
[37] = second compound 10 µM, first compound 0.0316 µM
[38] = second compound 10 µM, first compound 0.1 µM
[39] = second compound 10 µM, first compound 0.316 µM
[40] = second compound 10 µM, first compound 1 µM
[41] = second compound 10 µM, first compound 3.16 µM
[42] = second compound 10 µM, first compound 10 µM
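Further: viability measured after seven days of drug exposure.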
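Wherever viability, T/C is given: luminescence signal used as surrogate for viable cell amount; 100% = DMSO vehicle control wells.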

CC(Nc1ccc2c(c1)OCCn1cc(N3C(=O)OCC3C(F)F)nc1-2)C(N)=O (stereo unspecified) + CN1CCN(c2cc(C(=O)Nc3cc4cc(-c5cnn(C)c5)ccc4cn3)ccn2)CC1
IC50 [1]: 65.7 nM | IC50 [2]: < 31.6 nM | IC50 [3]: < 31.6 nM | IC50 [4]: < 31.6 nM | IC50 [5]: < 31.6 nM | IC50 [6]: < 31.6 nM | viability, T/C [7]: 72.8% | viability, T/C [8]: 37% | viability, T/C [9]: 15% | viability, T/C [10]: 12.5% | viability, T/C [11]: 9.81% | viability, T/C [12]: 9.9% | viability, T/C [13]: 41.8% | viability, T/C [14]: 18.2% | viability, T/C [15]: 12.3% | viability, T/C [16]: 8.91% | viability, T/C [17]: 7% | viability, T/C [18]: 7.78% | viability, T/C [19]: 15.9% | viability, T/C [20]: 10.2% | viability, T/C [21]: 7.13% | viability, T/C [22]: 1.63% | viability, T/C [23]: 0.95% | viability, T/C [24]: 0.77% | viability, T/C [25]: 0.37% | viability, T/C [26]: 0.22% | viability, T/C [27]: 0.1% | viability, T/C [28]: 0.05% | viability, T/C [29]: 0.08% | viability, T/C [30]: 0.08% | viability, T/C [31]: 0.12% | viability, T/C [32]: 0.1% | viability, T/C [33]: 0.35% | viability, T/C [34]: 0.06% | viability, T/C [35]: 2.39% | viability, T/C [36]: 0.59% | viability, T/C [37]: 0.05% | viability, T/C [38]: 0.11% | viability, T/C [39]: 1.89% | viability, T/C [40]: 0.11% | viability, T/C [41]: 0.27% | viability, T/C [42]: 0.33%

CCCS(=O)(=O)Nc1ccc(F)c(C(=O)c2c[nH]c3ncc(-c4ccc(Cl)cc4)cc23)c1F + CNC(=O)c1ccc(Nc2nc(OC3CCCC3)c3c(-c4ccc5nc(C)oc5c4)c[nH]c3n2)c(OC)c1
IC50 [1]: > 10000 nM | IC50 [2]: > 10000 nM | IC50 [3]: 9850 nM | IC50 [4]: 3860 nM | IC50 [5]: < 31.6 nM | IC50 [6]: < 31.6 nM | viability, T/C [7]: 109% | viability, T/C [8]: 105% | viability, T/C [9]: 113% | viability, T/C [10]: 116% | viability, T/C [11]: 105% | viability, T/C [12]: 68.1% | viability, T/C [13]: 91.6% | viability, T/C [14]: 103% | viability, T/C [15]: 105% | viability, T/C [16]: 106% | viability, T/C [17]: 103% | viability, T/C [18]: 66.2% | viability, T/C [19]: 92.3% | viability, T/C [20]: 98.7% | viability, T/C [21]: 93.1% | viability, T/C [22]: 104% | viability, T/C [23]: 101% | viability, T/C [24]: 49.3% | viability, T/C [25]: 53.7% | viability, T/C [26]: 50.7% | viability, T/C [27]: 46.9% | viability, T/C [28]: 57.2% | viability, T/C [29]: 64% | viability, T/C [30]: 28.6% | viability, T/C [31]: 25.1% | viability, T/C [32]: 33.7% | viability, T/C [33]: 34.4% | viability, T/C [34]: 30.1% | viability, T/C [35]: 29.6% | viability, T/C [36]: 26.1% | viability, T/C [37]: 20% | viability, T/C [38]: 31.2% | viability, T/C [39]: 29.7% | viability, T/C [40]: 20.1% | viability, T/C [41]: 27.8% | viability, T/C [42]: 24%

O=c1[nH]cc(F)c(=O)[nH]1
viability, T/C (compound 0.0316 µM): 93.5% and 101% | viability, T/C (compound 0.1 µM): 102% and 107% | viability, T/C (compound 0.316 µM): 88% and 104% | viability, T/C (compound 1 µM): 109% and 112% | viability, T/C (compound 3.16 µM): 67.9% and 113% | viability, T/C (compound 10 µM): 53.5% and 93.2% | IC50 (curve of compound): > 10000 nM

CC1COCCN1c1cc(C2(S(C)(=N)=O)CC2)nc(-c2ccnc3[nH]ccc23)n1 (stereo unspecified) + CNC(=O)c1ccc(Nc2nc(OC3CCCC3)c3c(-c4ccc5nc(C)oc5c4)c[nH]c3n2)c(OC)c1
IC50 [1]: > 10000 nM | IC50 [2]: 8260 nM | IC50 [3]: 2960 nM | IC50 [4]: < 31.6 nM | IC50 [5]: < 31.6 nM | IC50 [6]: < 31.6 nM | viability, T/C [7]: 111% | viability, T/C [8]: 110% | viability, T/C [9]: 102% | viability, T/C [10]: 103% | viability, T/C [11]: 90.8% | viability, T/C [12]: 52.4% | viability, T/C [13]: 101% | viability, T/C [14]: 102% | viability, T/C [15]: 104% | viability, T/C [16]: 108% | viability, T/C [17]: 73.8% | viability, T/C [18]: 45.3% | viability, T/C [19]: 79.8% | viability, T/C [20]: 72.2% | viability, T/C [21]: 74.5% | viability, T/C [22]: 58.2% | viability, T/C [23]: 51.3% | viability, T/C [24]: 30.9% | viability, T/C [25]: 47.8% | viability, T/C [26]: 44.8% | viability, T/C [27]: 38.5% | viability, T/C [28]: 37.3% | viability, T/C [29]: 24.8% | viability, T/C [30]: 18.1% | viability, T/C [31]: 31.5% | viability, T/C [32]: 20.9% | viability, T/C [33]: 19.4% | viability, T/C [34]: 18.8% | viability, T/C [35]: 17.2% | viability, T/C [36]: 14.2% | viability, T/C [37]: 19.6% | viability, T/C [38]: 23% | viability, T/C [39]: 20.6% | viability, T/C [40]: 16.1% | viability, T/C [41]: 15.3% | viability, T/C [42]: 9.89%

CCc1c2c(nc3ccc(O)cc13)-c1cc3c(c(=O)n1C2)COC(=O)[C@]3(O)CC
viability, T/C (compound 0.00316 µM): 86.5% and 95.1% | viability, T/C (compound 0.01 µM): 49.5% and 86.4% | viability, T/C (compound 0.0316 µM): 31.5% and 79.7% | viability, T/C (compound 0.1 µM): 32.8% and 59.9% | viability, T/C (compound 0.316 µM): 15.3% and 52.8% | viability, T/C (compound 1 µM): 12% and 15.8%

CC(CO)NC(=O)c1cc(-c2ccc(Cl)cc2)nn(-c2cnn(C)c2)c1=O (stereo unspecified)
viability, T/C (compound 0.0316 µM): 105% and 101% | viability, T/C (compound 0.1 µM): 105% and 90.6% | viability, T/C (compound 0.316 µM): 94.4% and 95.7% | viability, T/C (compound 1 µM): 94.6% and 100% | viability, T/C (compound 3.16 µM): 92.7% and 107% | viability, T/C (compound 10 µM): 89.6% and 82.1% | IC50 (curve of compound): > 10000 nM
